Data published in patent US20220169622A1, “AMPLIFICATION OF NUCLEIC ACIDS” (Abbott Molecular Inc., priority 2018, published 2022).
Entries after “also recorded” stand apart in the source; their conditions may differ.

Assays:
Assay type in all cases: biochemical
[1] = tested on: non-specific amplification products; assay: RT-PCR without template, EVA Green monitoring of non-specific amplification products (Example 1); conditions: 0.0015, 0.005, 0.01% (w/w) MIT (0.015, 0.05, 0.1% (w/w) PROCLIN 950); no template; compared to reactions without MIT
From the text: The primers and probes in the reaction mixtures target HIV-1 nucleic acids. The fluorescent DNA-intercalating dye, EVA Green, was included in each reaction to monitor the accumulation of non-specific amplification products. Realtime EVA Green fluorescence signals from RT-PCR reactions comprising […], 0.05. and 0.1% (w/w) PROCLIN 950 are shown in FIG. 1.

[2] = tested on: non-specific amplification products; assay: RT-PCR without HIV-1 target RNA after master mix incubation at 2 to 8° C. for 16 hours, EVA Green (Example 2); conditions: 0.0015, 0.005, 0.01% (w/w) MIT; master mix incubated at 2 to 8° C. for 16 hours; no HIV-1 target RNA; compared to reactions without MIT
Description: During the development of embodiments of the technology provided herein, experiments were conducted to simulate the preparation of bulk RT-PCR reagents by a commercial manufacturing process. In particular, prototype HIV-1 assay master mixes comprising 0, 0.015, 0.05, and 0.1% (w/w) PROCLIN 950 (corresponding to 0, 0.0015, 0.005, and 0.01% (w/w) MIT concentrations, respectively) were incubated at 2 to 8° C. for 16 hours. RT-PCR was then performed with each master mix in the absence of HIV-1 target RNA (2 replicates per condition). The fluorescent DNA-intercalating dye. EVA Green was included in each reaction to monitor the accumulation of non-specific amplification products. Realtime EVA Green fluorescence signals from RT-PCR reactions comprising 0, 0.015, 0.05, and 0.1% (w/w) PROCLIN 950 are shown in FIG. 2.

HIV-1 target RNA = assay: Prototype HIV-1 assay RT-PCR with 50 copies of target RNA (Example 3); conditions: 0.015% (w/w) PROCLIN 950 (0.0015% (w/w) MIT); 50 copies of HIV-1 target RNA; compared to no PROCLIN 950
Description: During the development of embodiments of the technology provided herein, experiments were conducted to test RT-PCR in the presence of MIT in a prototype HIV-1 assay master mix. Prototype HIV-1 assay master mixes comprising 50 copies of HIV-1 target RNA and either 0.015% (w/w) PROCLIN 950 (0.0015% (w/w) MIT) or comprising no PROCLIN 950 were tested by RT-PCR (8 replicates each condition). HIV-specific realtime fluorescence signals from HIV-1 RT-PCR reactions comprising 0 or 0.015% (w/w) PROCLIN 950 are shown in FIG. 3.

Chlamydia trachomatis = assay: Prototype CT/NG assay RT-PCR with 0.1 inclusion forming units (Example 4); conditions: 0.015% (w/w) PROCLIN 950 (0.0015% (w/w) MIT); 0.1 inclusion forming units of Chlamydia trachomatis; compared to no PROCLIN 950
Description: During the development of embodiments of the technology provided herein, experiments were conducted to test RT-PCR in the presence of MIT in a prototype CT/NG assay master mix. Prototype CT/NG assay master mixes comprising 0.1 inclusion forming units of Chlamydia trachomatis and either 0.015% (w/w) PROCLIN 950 (0.0015% (w/w) MIT) or comprising no PROCLIN 950 were tested by RT-PCR (8 replicates each condition). CT-specific realtime fluorescence signals from CT/NG RT-PCR reactions comprising 0 or 0.015% (w/w) PROCLIN 950 (0.0015% (w/w) MIT) are shown in FIG. 4. […] Further, the prototype CT/NG assay uses different primer and probe sets than the prototype HIV-1 assay described in Example 3.

Question: `Cn1sccc1=O` [MIT, 2-methyl-4-isothiazolin-3-one] was tested. Which “non-specific product formation (EVA Green signal)” value [1] did it give?
Answer: reduces the accumulation of non-specific product; also recorded: decreased levels of non-specific product formation

Question: What about the “non-specific product formation (EVA Green signal)” value [2] of the same compound?
Answer: reduces the accumulation of non-specific product during prolonged storage; also recorded: decreased levels of non-specific product formation

Question: And the “HIV-specific realtime fluorescence signal (RT-PCR performance)” value (HIV-1 target RNA)?
Answer: enhances RT-PCR performance

Question: What about the “CT-specific realtime fluorescence signal (RT-PCR performance)” value (Chlamydia trachomatis) of the same compound?
Answer: enhances RT-PCR performance
